Measurements taken from the NIST ThermoML archive (doi:10.1016/j.jct.2006.06.002).
± gives the expanded uncertainty stated by the source.

Assay: refractive index (Na D-line) (dimensionless)
Details: 101.33 kPa, Liquid, Standard Abbe refractometry

refractive index (293.15 K) | refractive index (303.15 K) | SMILES
1.3288 ± 0.0009 | – | CO [methanol]
– | 1.4954 ± 0.0009 | c1ccccc1 [benzene]
